Legend:
[1] = biological target: T1, Type-B CCK receptors (Cavia porcellus, UniProt H0VZC5); test: Radioligand binding ([125I]BH-CCK-8) in guinea pig cerebral cortical membrane preparations; conditions: cortical membranes, 30° C., 150 minutes, read-out: IC50 (nM) cortex (Type B)
T1 construct: Cortical and pancreatic membranes were prepared as described; from tissue; host or cells: guinea pig cerebral cortex membranes
T1 sequence (H0VZC5 1-426): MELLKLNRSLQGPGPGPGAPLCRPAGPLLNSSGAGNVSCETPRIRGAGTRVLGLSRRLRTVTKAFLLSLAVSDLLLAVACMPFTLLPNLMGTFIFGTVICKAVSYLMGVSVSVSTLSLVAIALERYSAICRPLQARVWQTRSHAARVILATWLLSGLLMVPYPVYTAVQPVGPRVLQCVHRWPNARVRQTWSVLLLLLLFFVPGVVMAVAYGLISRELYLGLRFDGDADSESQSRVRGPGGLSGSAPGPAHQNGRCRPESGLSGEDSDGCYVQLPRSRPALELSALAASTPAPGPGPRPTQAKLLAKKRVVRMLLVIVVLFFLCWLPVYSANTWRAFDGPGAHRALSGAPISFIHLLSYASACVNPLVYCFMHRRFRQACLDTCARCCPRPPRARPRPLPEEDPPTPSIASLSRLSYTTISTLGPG
Method: CCK-8 (Asp-Tyr(SO3 H)-Met-Gly-Trp-Met-Asp-Phe-NH2), bestatin and phosphoramidon were purchased from Peptide International (Louisville, Ky.). EGTA, HEPES, BSA were purchased from Sigma Chemical Co. (St. Louis, Mo.). […] Male guinea pigs, 250 to 325 g, were obtained from Scientific Small Animal Laboratory and Farm (Arlington Heights, Ill.). Collagenase, code CLSPA, was purchased from Worthington (Frehold, N.J.).
Cortical and pancreatic membranes were prepared as described (Lin and Miller; J. Pharmacol. Exp. Ther., 1985, 232:775-780). In brief, pancreas and cortex were removed and rinsed with ice-cold saline. Visible fat and connective tissues were removed from the pancreas. Tissues were weighed and homogenized in approximately 25 mL of ice-cold 50 mM Tris-HCl buffer, pH 7.4 at 4° C. with a Brinkman Polytron for 30 seconds, setting 7. The homogenates were centrifuged for 10 minutes at 1075×g and the pellet was discarded. The supernantants were saved and centrifuged at 38,730×g for 20 minutes. The resultant pellets were rehomogenized in 25 mL of 50 mM Tris-HCl buffer with a Teflon-glass homogenizer, 5 up and down strokes. The homogenates were centrifuged again at 38,730×g for 20 minutes. The pellets were then resuspended in 20 mM HEPES, containing 1 mM EGTA, 118 mM NaCl, 4.7 mM KCl, 5 mM MgCl2, 100 μ M bestatin, 3 μM phosphoramidon, pH 7.4 at 22° C. with a Teflon-glass homogenizer, 15 up and down strokes. The resuspension volume used for the cortex was 15 mL per g of original wet weight and 60 mL per g for pancreas.
To 1 mL Skatron polystyrene tubes were added 25 uL of test compounds, 25 uL of [^125 I]BH-CCK8 and 200 uL of membrane suspension. The final BSA concentration was 0.1%. The cortical tissues (source of Type-B CCK receptors) were incubated at 30° C. for 150 minutes and pancreatic tissues (source of Type-A CCK receptors) were incubated at 37° C. for 150 minutes. Incubations were terminated by filtration using a Skatron Cell Harvester and SS32 microfiber filter mats. […] IC50 values were determined from the Hill analysis.

[2] = biological target: T2, Type-A CCK receptors (Cavia porcellus, UniProt Q63931); test: Radioligand binding ([125I]BH-CCK-8) in guinea pig pancreatic membrane preparations; conditions: pancreatic membranes, 37° C., 150 minutes, read-out: IC50 (nM) Pancreas (Type A)
T2 construct: Cortical and pancreatic membranes were prepared as described; from tissue; host or cells: guinea pig pancreas membranes
T2 sequence (Q63931 1-430): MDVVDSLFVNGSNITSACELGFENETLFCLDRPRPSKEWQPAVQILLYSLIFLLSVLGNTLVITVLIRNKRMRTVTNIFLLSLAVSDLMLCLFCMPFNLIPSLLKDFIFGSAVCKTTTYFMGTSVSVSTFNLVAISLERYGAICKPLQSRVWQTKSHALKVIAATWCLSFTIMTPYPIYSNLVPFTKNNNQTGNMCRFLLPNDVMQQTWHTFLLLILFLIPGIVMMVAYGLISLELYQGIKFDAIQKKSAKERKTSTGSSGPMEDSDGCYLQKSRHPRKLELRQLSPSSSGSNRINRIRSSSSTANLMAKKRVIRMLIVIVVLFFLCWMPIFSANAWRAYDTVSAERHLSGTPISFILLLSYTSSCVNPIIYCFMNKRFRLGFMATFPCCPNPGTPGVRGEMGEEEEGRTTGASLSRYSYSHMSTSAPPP

| SMILES | IC50 [1] [nM] | IC50 [2] [nM] |
| --- | --- | --- |
| CC(C)C[C@H](NC(=O)[C@@H]1Cc2c[nH]c3cccc(c23)CC(=O)N1)C(=O)N[C@@H](CC(=O)O)C(=O)N/C(=C\c1ccccc1)C(N)=O [Example 14, Ctp-Leu-Asp-(dehydro)Phe-NH2] | 16 | > 10000 |
| CCC[C@@H]1CCN(C(=O)[C@@H]2Cc3c[nH]c4cccc(c34)CC(=O)N2)[C@@H]1C(=O)N[C@@H](CC(=O)O)C(=O)N[C@@H](Cc1ccccc1)C(N)=O [Example 35, Ctp-Cpp-Asp-Phe-NH2] | 18 | 4770 |
| NC(=O)[C@H](Cc1ccccc1)NC(=O)[C@H](CC(=O)O)NC(=O)[C@@H]1CSCCN1C(=O)[C@@H]1Cc2c[nH]c3cccc(c23)CC(=O)N1 [Example 42, Ctp-(1,4-thiazane-3-carbonyl)-Asp-Phe-NH2] | 8.4 | 1300 |
| NC(=O)[C@H](Cc1ccccc1)NC(=O)[C@H](CC(=O)O)NC(=O)[C@@H]1CCCCN1C(=O)[C@@H]1Cc2c[nH]c3cccc(c23)CC(=O)N1 [Example 43, Ctp-Pip-Asp-Phe-NH2] | 29.9 | 11500 |
